System: 616215-338-R-J1-PDC tumor spheroids, viability
Assay: Anticancer human tumor 616215-338-R-J1-PDC patient-derived colon adenocarcinoma cell line growth inhibition [GQUAD]
Settings: spheroids with HUVEC and MSC; for IC50: curve of first compound; for viability, T/C: stronger effect = lower value; active = viability on the fitted dose curve at most 10% of control; inactive = the rest
Outline: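 Multi-cell-type spheroids of tumor cells with HUVEC and mesenchymal stem cells, treated with drug combinations. Concentrations descend in half-log steps from near clinical Cmax, or from 10 microM where Cmax is unknown; viability read-out.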

[1] = second compound 0.0316 µM, first compound 0.0316 µM
[2] = second compound 0.0316 µM, first compound 0.316 µM
[3] = second compound 0.1 µM, first compound 0.0316 µM
[4] = second compound 0.1 µM, first compound 0.316 µM
[5] = second compound 0.316 µM, first compound 0.0316 µM
[6] = second compound 0.316 µM, first compound 0.316 µM
[7] = second compound 1 µM, first compound 0.0316 µM
[8] = second compound 1 µM, first compound 0.316 µM
[9] = second compound 3.16 µM, first compound 0.0316 µM
[10] = second compound 3.16 µM, first compound 0.316 µM
[11] = second compound 10 µM, first compound 0.0316 µM
[12] = second compound 10 µM, first compound 0.316 µM
[13] = second compound 0.0316 µM, first compound 0.1 µM
[14] = second compound 0.0316 µM, first compound 1 µM
[15] = second compound 0.0316 µM, first compound 3.16 µM
[16] = second compound 0.0316 µM, first compound 10 µM
[17] = second compound 0.1 µM, first compound 0.1 µM
[18] = second compound 0.1 µM, first compound 1 µM
[19] = second compound 0.1 µM, first compound 3.16 µM
[20] = second compound 0.1 µM, first compound 10 µM
[21] = second compound 0.316 µM, first compound 0.1 µM
[22] = second compound 0.316 µM, first compound 1 µM
[23] = second compound 0.316 µM, first compound 3.16 µM
[24] = second compound 0.316 µM, first compound 10 µM
[25] = second compound 1 µM, first compound 0.1 µM
[26] = second compound 1 µM, first compound 1 µM
[27] = second compound 1 µM, first compound 3.16 µM
[28] = second compound 1 µM, first compound 10 µM
[29] = second compound 3.16 µM, first compound 0.1 µM
[30] = second compound 3.16 µM, first compound 1 µM
[31] = second compound 3.16 µM, first compound 3.16 µM
[32] = second compound 3.16 µM, first compound 10 µM
[33] = second compound 10 µM, first compound 0.1 µM
[34] = second compound 10 µM, first compound 1 µM
[35] = second compound 10 µM, first compound 3.16 µM
[36] = second compound 10 µM, first compound 10 µM
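Note: spheroids exposed to agents for 7 days before readout.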
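Throughout, for viability, T/C: percent viability relative to DMSO vehicle control wells taken as 100%.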

CCc1c2c(nc3ccc(O)cc13)-c1cc3c(c(=O)n1C2)COC(=O)[C@]3(O)CC + Cc1cnc(CNC(=O)c2c(=O)c3ccc(N4CCCN(C)CC4)nc3n3c2sc2ccccc23)cn1
inactive: viability, T/C (second compound 0.0316 µM, first compound 0.000999 µM) 105% | viability, T/C (second compound 0.0316 µM, first compound 0.00316 µM) 79.5% | viability, T/C (second compound 0.0316 µM, first compound 0.00999 µM) 47.5% | viability, T/C [1] 30.2% | viability, T/C (second compound 0.0316 µM, first compound 0.0999 µM) 22.1% | viability, T/C [2] 12.9% | viability, T/C (second compound 0.1 µM, first compound 0.000999 µM) 62.2% | viability, T/C (second compound 0.1 µM, first compound 0.00316 µM) 58.3% | viability, T/C (second compound 0.1 µM, first compound 0.00999 µM) 39.8% | viability, T/C [3] 25.6% | viability, T/C (second compound 0.1 µM, first compound 0.0999 µM) 18.2% | viability, T/C [4] 9.44% | viability, T/C (second compound 0.316 µM, first compound 0.000999 µM) 49.3% | viability, T/C (second compound 0.316 µM, first compound 0.00316 µM) 37% | viability, T/C (second compound 0.316 µM, first compound 0.00999 µM) 24.6% | viability, T/C [5] 31.4% | viability, T/C (second compound 0.316 µM, first compound 0.0999 µM) 13.5% | viability, T/C (second compound 1 µM, first compound 0.000999 µM) 38.1% | viability, T/C (second compound 1 µM, first compound 0.00316 µM) 19.4% | viability, T/C (second compound 1 µM, first compound 0.00999 µM) 24.9% | viability, T/C [7] 18.7% | viability, T/C (second compound 3.16 µM, first compound 0.000999 µM) 20% | viability, T/C (second compound 3.16 µM, first compound 0.00316 µM) 25.2% | viability, T/C (second compound 3.16 µM, first compound 0.00999 µM) 21.1% | viability, T/C [9] 14.4% | viability, T/C (second compound 3.16 µM, first compound 0.0999 µM) 17.8% | viability, T/C (second compound 10 µM, first compound 0.000999 µM) 23.8% | viability, T/C (second compound 10 µM, first compound 0.00316 µM) 22% | viability, T/C (second compound 10 µM, first compound 0.00999 µM) 23.6% | viability, T/C [11] 5.75%
5.05 nM: IC50 (second compound 0.1 µM)
9.82 nM: IC50 (second compound 0.0316 µM)
active: viability, T/C [6] 6.95% | viability, T/C (second compound 1 µM, first compound 0.0999 µM) 13.7% | viability, T/C [8] 0.14% | viability, T/C [10] 0.15% | viability, T/C (second compound 10 µM, first compound 0.0999 µM) 0.31% | viability, T/C [12] 0.21%
< 0.999 nM: IC50 (second compound 0.316 µM) | IC50 (second compound 1 µM) | IC50 (second compound 3.16 µM) | IC50 (second compound 10 µM)

COc1ncnc(C2CC2)c1-c1ncc2cnn(Cc3ccc(-c4nc(C(F)(F)F)cn4C(C)C)cc3)c2n1 + CN(C)c1ccc(Nc2c3ccc(NC(=O)CCN4CCCC4)cc3nc3cc(NC(=O)CCN4CCCC4)ccc23)cc1
9350 nM: IC50 (second compound 10 µM)
> 10000 nM: IC50 (second compound 0.0316 µM) | IC50 (second compound 0.1 µM) | IC50 (second compound 0.316 µM) | IC50 (second compound 1 µM) | IC50 (second compound 3.16 µM)
inactive: viability, T/C [1] 114% | viability, T/C [13] 101% | viability, T/C [2] 105% | viability, T/C [14] 96.3% | viability, T/C [15] 109% | viability, T/C [16] 97.5% | viability, T/C [3] 102% | viability, T/C [17] 96.1% | viability, T/C [4] 100% | viability, T/C [18] 101% | viability, T/C [19] 114% | viability, T/C [20] 90.2% | viability, T/C [5] 106% | viability, T/C [21] 95.3% | viability, T/C [6] 96.9% | viability, T/C [22] 104% | viability, T/C [23] 101% | viability, T/C [24] 93.7% | viability, T/C [7] 101% | viability, T/C [25] 114% | viability, T/C [8] 105% | viability, T/C [26] 101% | viability, T/C [27] 101% | viability, T/C [28] 92.1% | viability, T/C [9] 96.4% | viability, T/C [29] 91.2% | viability, T/C [10] 91.4% | viability, T/C [30] 105% | viability, T/C [31] 93.2% | viability, T/C [32] 97.7% | viability, T/C [11] 91.7% | viability, T/C [33] 85.3% | viability, T/C [12] 97.3% | viability, T/C [34] 90.3% | viability, T/C [35] 86.2% | viability, T/C [36] 47.8%

COc1ccc([C@@H](O)c2cc(-c3ncnc4cc(N5CCOCC5)ccc34)c(F)cc2Cl)nn1 + CN(C)c1ccc(Nc2c3ccc(NC(=O)CCN4CCCC4)cc3nc3cc(NC(=O)CCN4CCCC4)ccc23)cc1
6040 nM: IC50 (second compound 3.16 µM)
8160 nM: IC50 (second compound 1 µM)
> 10000 nM: IC50 (second compound 0.0316 µM) | IC50 (second compound 0.1 µM) | IC50 (second compound 0.316 µM)
3400 nM: IC50 (second compound 10 µM)
inactive: viability, T/C [1] 105% | viability, T/C [13] 99.2% | viability, T/C [2] 101% | viability, T/C [14] 98.1% | viability, T/C [15] 93.1% | viability, T/C [16] 58.6% | viability, T/C [3] 96.3% | viability, T/C [17] 94.6% | viability, T/C [4] 104% | viability, T/C [18] 102% | viability, T/C [19] 87.6% | viability, T/C [20] 55.6% | viability, T/C [5] 101% | viability, T/C [21] 93% | viability, T/C [6] 102% | viability, T/C [22] 103% | viability, T/C [23] 97.7% | viability, T/C [24] 54.6% | viability, T/C [7] 97.7% | viability, T/C [25] 100% | viability, T/C [8] 94.3% | viability, T/C [26] 92.7% | viability, T/C [27] 89.1% | viability, T/C [28] 41.3% | viability, T/C [9] 91% | viability, T/C [29] 89.9% | viability, T/C [10] 90.4% | viability, T/C [30] 101% | viability, T/C [31] 74.9% | viability, T/C [32] 30.6% | viability, T/C [11] 91.3% | viability, T/C [33] 90.8% | viability, T/C [12] 93.7% | viability, T/C [34] 64.2% | viability, T/C [35] 57.6% | viability, T/C [36] 10.2%

CC(C)(O)C1CCC(Nc2ccc3ncc(-c4cccc(C(F)(F)F)c4)n3n2)CC1 (stereo not given) + Cc1[nH]c2ccc(F)cc2c1-c1nc2c3cccnc3c3ncccc3c2[nH]1
596 nM: IC50 (second compound 0.1 µM)
591 nM: IC50 (second compound 0.316 µM)
644 nM: IC50 (second compound 1 µM)
566 nM: IC50 (second compound 10 µM)
610 nM: IC50 (second compound 0.0316 µM)
inactive: viability, T/C [1] 99.1% | viability, T/C [13] 103% | viability, T/C [2] 103% | viability, T/C [14] 11.2% | viability, T/C [3] 93.7% | viability, T/C [17] 109% | viability, T/C [4] 94.3% | viability, T/C [18] 13.8% | viability, T/C [5] 92% | viability, T/C [21] 97% | viability, T/C [6] 97.6% | viability, T/C [22] 11.7% | viability, T/C [7] 97% | viability, T/C [25] 89.9% | viability, T/C [8] 91.6% | viability, T/C [26] 24.3% | viability, T/C [9] 98.8% | viability, T/C [29] 103% | viability, T/C [10] 95.2% | viability, T/C [30] 10.4% | viability, T/C [11] 90.1% | viability, T/C [33] 94.4% | viability, T/C [12] 93.2%
active: viability, T/C [15] 0.5% | viability, T/C [16] 1.09% | viability, T/C [19] 0.24% | viability, T/C [20] 2.5% | viability, T/C [23] 2.23% | viability, T/C [24] 1.14% | viability, T/C [27] 0.55% | viability, T/C [28] 1.33% | viability, T/C [31] 0.45% | viability, T/C [32] 0.48% | viability, T/C [34] 8.43% | viability, T/C [35] 0.77% | viability, T/C [36] 0.56%
584 nM: IC50 (second compound 3.16 µM)

O=C(NO)c1cnc(N2CCN(S(=O)(=O)c3ccc4ccccc4c3)CC2)nc1 + Cc1[nH]c2ccc(F)cc2c1-c1nc2c3cccnc3c3ncccc3c2[nH]1
324 nM: IC50 (second compound 3.16 µM)
406 nM: IC50 (second compound 0.0316 µM)
active: viability, T/C [14] 6.64% | viability, T/C [15] 0.1% | viability, T/C [16] 0.12% | viability, T/C [18] 1.07% | viability, T/C [19] 0.04% | viability, T/C [20] 0.07% | viability, T/C [22] 1.02% | viability, T/C [23] 0.02% | viability, T/C [24] 0.05% | viability, T/C [26] 4.76% | viability, T/C [27] 0.03% | viability, T/C [28] 0.06% | viability, T/C [30] 2.81% | viability, T/C [31] 0.06% | viability, T/C [32] 0.08% | viability, T/C [34] 3.03% | viability, T/C [35] 0.15% | viability, T/C [36] 0.63%
466 nM: IC50 (second compound 0.316 µM)
343 nM: IC50 (second compound 0.1 µM)
369 nM: IC50 (second compound 1 µM)
inactive: viability, T/C [1] 96.2% | viability, T/C [13] 94% | viability, T/C [2] 62% | viability, T/C [3] 98.6% | viability, T/C [17] 94.8% | viability, T/C [4] 53.8% | viability, T/C [5] 117% | viability, T/C [21] 110% | viability, T/C [6] 74.5% | viability, T/C [7] 103% | viability, T/C [25] 94.6% | viability, T/C [8] 57.6% | viability, T/C [9] 104% | viability, T/C [29] 96.9% | viability, T/C [10] 51.4% | viability, T/C [11] 103% | viability, T/C [33] 94.6% | viability, T/C [12] 65.7%
422 nM: IC50 (second compound 10 µM)
